These results are taken from patent publication US20250275976A1, “Methods of Treating Neuroinflammatory Conditions” (Athira Pharma, Inc., priority 2022, published 2025).

“Also recorded” adds a separate entry of the source.

The assay deals with male CD-1 mice. Briefly: T-maze spontaneous alternation, LPS-induced cognitive deficit. In kind it is in vivo, mouse. The note with it: for Reversal of LPS-induced cognitive deficit in T-maze (result in words): ANOVA, Fisher's PLSD, p<0.05, doses as in the value; for Spontaneous alternation (%) Mean: LPS 250 μg/kg i.p.; for Recovery (%): saline/vehicle = 100%, LPS/vehicle = 0%. The source says: Encephalitis refers to inflammation of the brain that may result in brain swelling fever, headache, confusion, and seizures. The source of neuroinflammation can vary widely, including due to viral, bacterial, parasitic, or fungal infection or due to autoimmune diseases. Lipopolysaccharide (LPS) is a bacterial endotoxin that induces an intense neuroinflammatory reaction and has been associated with cognitive decline. The ability of Compound A19 to reverse cognitive decline induced by LPS in a mouse model of encephalitis was studied using a T-maze assay. In a separate substantially similar assay, Compounds 1a and 5a were also assessed.
Spontaneous and continuous alternation is the innate tendency of rodents to alternate free choices in a T-maze (T-CAT) over a series of successive runs. This sequential procedure relies on working memory and is sensitive to various pharmacological manipulations affecting memory processes. The present studies were conducted to evaluate the abilities of Compound A19, Compound 1a and Compound 5a to reverse LPS-induced cognitive deficit in the T-maze assay.
Compound A19 was dissolved in 0.9% NaCl (saline) and vortexed periodically until complete dissolution and with the pH adjusted between 7.4 and 7.8. Compound A19 was used in concentrations of 0.125, 0.1, 0.05, 0.025 and 0.0125 mg/ml which when given in a volume of 10 ml/kg result in doses of 1.25, 1, 0.5, 0.25 and 0.125 mg/kg, respectively. Compound 1a was dissolved at 160 mg/ml in 100% DMSO and vortexed until complete dissolution. Then the above stock solution was diluted in 20% PEG-400 and 78% 0.9% NaCl, whereby the stock solution comprised 2% of the final solution. Compound 1a was used in concentrations of 0.05, 0.2, 0.8, 1.6 and 3.2 mg/ml which when given in a volume of 10 ml/kg result in doses of 0.5, 2, 8, 16 and 32 mg/kg, respectively. Compound 5a was dissolved at 100 mg/ml in 100% DMSO and vortexed until complete dissolution. Then the above stock solution was diluted in 20% PEG-400 and 78% 0.9% NaCl, whereby the stock solution comprised 2% of the final solution. Compound 5a was used in concentrations of 0.125, 0.25, 0.5, 1 and 2 mg/ml which when given in a volume of 10 ml/kg result in doses of 1.25, 2.5, 5, 10 and 20 mg/kg, respectively.
Memantine was dissolved in saline. Memantine was used in concentration of 0.1 and 0.01 mg/ml, which when given in a volume of 10 ml/kg result in a dose of 1 and 0.1 mg/kg, respectively. Memantine is approved for symptomatic treatment of Alzheimer's disease was used as a reference compound.
LPS was dissolved in saline and prepared at a concentration of 0.0125 mg/ml and given intraperitoneally (i.p.) at a dosage volume of 20 ml/kg to yield a dose of 0.25 mg/kg ([…]).
Four to five weeks old male CD-1 mice (Janvier; Le Genest St Isle - France) were used for the study.
LPS was injected i.p. 2 weeks prior the T-maze trial. Compound 1a was tested at doses of 0.5, 2, 8, 16, and 32 mg/kg administered orally (p.o.) for 14 days with last treatment given 60 min before the T-maze trial. Compound 5a was tested at the doses of 1.25, 2.5, 5, 10, and 20 mg/kg administered orally (p.o.) for 14 days with last treatment given 60 min before the T-maze trial. LPS was injected i.p. 2 weeks prior the T-maze trial.
The T-maze apparatus was made of gray Plexiglas with a main stem (55 cm long×10 cm wide×20 cm high) and two arms (30 cm long×10 cm wide×20 cm high) positioned at a 90-degree angle relative to the main stem. A start box (15 cm long×10 cm wide) was separated from the main stem by a guillotine door. Horizontal doors were also provided to close specific arms during the force choice alternation task.
The experimental protocol consisted of a single session, which started with one “forced-choice” trial, followed by 14 “free-choice” trials. In the “forced-choice” trial, the animal was confined 5 seconds in the start arm and was then released while either the left or right goal arm was blocked by a horizontal door. […]

As for `CCC(C)CN1CC2N(C(=O)c3ccc(C(F)(F)F)cc3)CCC(=O)N2[C@@H](C)C1=O` (some centres unmarked) [Compound 1a], the “Reversal of LPS-induced cognitive deficit in T-maze (result in words)” value is “significant reversal of LPS-induced cognitive deficits at 2 mg/kg; also recorded: trending at 8 and 32 mg/kg; also recorded: reversed the LPS-induced cognitive disruption”. In addition, the “Spontaneous alternation (%) Mean” value (Compound 1a 0.5 mg/kg p.o. daily 14 days) turned out to be 49%. Also, under “Compound 1a 0.5 mg/kg p.o. daily 14 days, listed as Cmpd 1a”, the “Spontaneous alternation (%) Mean” value is 48.6%. Moreover, where the note is “Compound 1a 0.5 mg/kg p.o.”, the “Recovery (%)” value turned out to be 17%. Also, where the note is “Compound 1a 2 mg/kg p.o. daily 14 days”, the “Spontaneous alternation (%) Mean” value was determined as 59%. For the same molecule, the “Spontaneous alternation (%) Mean” value (Compound 1a 2 mg/kg p.o. daily 14 days, listed as Cmpd 1a) was 58.6%. For the same molecule, the “Recovery (%)” value (Compound 1a 2 mg/kg p.o.) amounted to 56%. For the same molecule, the “Spontaneous alternation (%) Mean” value (Compound 1a 8 mg/kg p.o. daily 14 days) was found to be 56%. For the same molecule, the “Spontaneous alternation (%) Mean” value (Compound 1a 8 mg/kg p.o. daily 14 days, listed as Cmpd 1a) is 56.4%. The “Recovery (%)” value (Compound 1a 8 mg/kg p.o.) is 47%. Also, the “Spontaneous alternation (%) Mean” value (Compound 1a 16 mg/kg p.o. daily 14 days) was 51%. The “Spontaneous alternation (%) Mean” value (Compound 1a 16 mg/kg p.o. daily 14 days, listed as Cmpd 1a) is reported as 51.4%. Further, the “Recovery (%)” value (Compound 1a 16 mg/kg p.o.) is on record as 28%. Also, for the setting “Compound 1a 32 mg/kg p.o. daily 14 days”, the “Spontaneous alternation (%) Mean” value worked out at 56%. In addition, the “Spontaneous alternation (%) Mean” value (Compound 1a 32 mg/kg p.o. daily 14 days, listed as Cmpd 1a) amounted to 55.7%. Besides, where the note is “Compound 1a 32 mg/kg p.o.”, the “Recovery (%)” value came to 44%.

As to `CCC(C)CN1CC2N(Cc3ccc(C(F)(F)F)cc3)CCC(=O)N2[C@@H](C)C1=O` (some centres unmarked) [Compound 5a], the “Reversal of LPS-induced cognitive deficit in T-maze (result in words)” value is on record as “significant reversal of LPS-induced cognitive deficits at all doses; also recorded: reversed the LPS-induced cognitive disruption”. Besides, the “Spontaneous alternation (%) Mean” value (Compound 5a 1.25 mg/kg p.o. daily 14 days) came to 59%. Moreover, under “Compound 5a 1.25 mg/kg p.o. daily 14 days, listed as Cmpd 5a”, the “Spontaneous alternation (%) Mean” value is reported as 59.3%. Moreover, for the setting “Compound 5a 1.25 mg/kg p.o.”, the “Recovery (%)” value came to 58%. Moreover, the “Spontaneous alternation (%) Mean” value (Compound 5a 2.5 mg/kg p.o. daily 14 days) was found to be 58%. In addition, the “Spontaneous alternation (%) Mean” value (Compound 5a 2.5 mg/kg p.o. daily 14 days, listed as Cmpd 5a) amounted to 57.9%. Moreover, the “Recovery (%)” value (Compound 5a 2.5 mg/kg p.o.) turned out to be 53%. Moreover, the “Spontaneous alternation (%) Mean” value (Compound 5a 5 mg/kg p.o. daily 14 days) is on record as 61%. Moreover, under “Compound 5a 5 mg/kg p.o. daily 14 days, listed as Cmpd 5a”, the “Spontaneous alternation (%) Mean” value stood at 60.7%. The “Recovery (%)” value (Compound 5a 5 mg/kg p.o.) is given as 64%. For the same molecule, the “Spontaneous alternation (%) Mean” value (Compound 5a 10 mg/kg p.o. daily 14 days) was found to be 58%. The “Spontaneous alternation (%) Mean” value (Compound 5a 10 mg/kg p.o. daily 14 days, listed as Cmpd 5a) is reported as 57.9%. Also, for the setting “Compound 5a 10 mg/kg p.o.”, the “Recovery (%)” value is 53%. Also, the “Spontaneous alternation (%) Mean” value (Compound 5a 20 mg/kg p.o. daily 14 days) stood at 60%. Moreover, for the setting “Compound 5a 20 mg/kg p.o. daily 14 days, listed as Cmpd 5a”, the “Spontaneous alternation (%) Mean” value was found to be 60.0%. Where the note is “Compound 5a 20 mg/kg p.o.”, the “Recovery (%)” value was 61%.
